Experiment: heat capacity at constant pressure per volume; xn = mol fraction of the nth substance listed
Settings: 101 kPa, Liquid, DSC, x2 = 0.695

CCCCCCCCCCCCCCCCC [heptadecane] + N#Cc1ccccc1
Settings | heat capacity [J/K/m3]
308.55 K | 1753500
308.65 K | 1748300
308.75 K | 1746500
308.85 K | 1745200
308.95 K | 1748100
309.05 K | 1747000
309.14 K | 1747900
309.25 K | 1743700
309.35 K | 1742200
309.45 K | 1738100
309.55 K | 1735200
309.65 K | 1738100
309.75 K | 1736500
309.85 K | 1737600
309.95 K | 1740400
310.05 K | 1736900
310.15 K | 1731900
310.25 K | 1735000
310.35 K | 1732200
310.45 K | 1727800
310.55 K | 1733700
310.65 K | 1733500
310.75 K | 1728600
310.85 K | 1733600
310.95 K | 1730900
311 K | 1732600
311.1 K | 1732200
311.2 K | 1728000
311.3 K | 1725400
311.4 K | 1724600
311.5 K | 1725800
311.6 K | 1729500
311.7 K | 1732300
311.8 K | 1728700
311.9 K | 1728100
312 K | 1725500
312.1 K | 1723400
312.2 K | 1722200
312.3 K | 1721300
312.4 K | 1724000
312.5 K | 1727600
312.6 K | 1725700
312.7 K | 1727300
312.8 K | 1722600
312.9 K | 1722100
313 K | 1720300
313.1 K | 1719600
313.2 K | 1723400
313.3 K | 1724400
313.4 K | 1725500
313.5 K | 1720500
313.6 K | 1717000
313.7 K | 1718300
313.8 K | 1719300
313.9 K | 1720600
314 K | 1725600
314.1 K | 1722200
314.2 K | 1723200
314.3 K | 1718000
314.4 K | 1717600
314.5 K | 1721100
314.6 K | 1727600
314.7 K | 1722500
314.8 K | 1716700
314.9 K | 1717900
315 K | 1715800
315.1 K | 1719700
315.2 K | 1722400
315.3 K | 1721800
315.4 K | 1717200
315.5 K | 1714900
315.6 K | 1718500
315.7 K | 1724700
315.8 K | 1719600
315.9 K | 1715500
316 K | 1715800
316.1 K | 1715600
316.2 K | 1721400
316.3 K | 1718600
316.4 K | 1718400
316.5 K | 1717700
316.6 K | 1724000
316.7 K | 1724400
316.8 K | 1719200
317.16 K | 1722200
317.2 K | 1722100
317.31 K | 1721500
317.4 K | 1721700
317.5 K | 1722100
317.6 K | 1721900
317.7 K | 1721900
317.8 K | 1721800
317.9 K | 1721500
318 K | 1721300
318.1 K | 1721300
318.2 K | 1721200
318.3 K | 1721100
318.41 K | 1721000
318.5 K | 1721100
318.6 K | 1721300
318.7 K | 1721400
318.8 K | 1721400
318.9 K | 1721100

Source: the NIST ThermoML archive (doi:10.1016/j.jct.2012.12.001)
